The record followed here is patent EP0381989A1, “New 4'-epi-4'-amino anthracyclines” (FARMITALIA CARLO ERBA S.r.l., priority 1989, dated 1990).

In brackets after ≈: the same amount, converted by molar mass.

The subject of one series is LoVo/DX cells. Briefly: in vitro cytotoxicity (colony growth inhibition) on LoVo/DX cells. The note with it: for Cytotoxicity after 4h of treatment (IC50) LoVo/DX: lovo/dx cells; for R.I. = Resistance Index = (IC50 LoVo.DX)/(IC50 LoVo): ratio of IC50 on LoVo/DX to IC50 on LoVo, 4h of treatment; for IC50: Homo sapiens, LoVo/DX, read-out: Cytotoxicity after 4h of treatment (IC50) LoVo/DX; for Cytotoxicity after 4h of treatment (IC50) LoVo/DX / IC50: 4 h. On the procedure:
(§1) The biological activity of the compounds according to the inventio was tested in vitro against LoVo (human colon adenocarcinoma) and LoVo/DX cells in comparison with doxorubicin and 4-demethoxydaunorubicin (4-dem-DNR). Table 1. Table 1 -

Series [1] concerns LoVo (human colon adenocarcinoma). Put plainly: in vitro cytotoxicity (colony growth inhibition) on LoVo cells. As to conditions: for Cytotoxicity after 4h of treatment (IC50) LoVo: lovo cells; for IC50: Homo sapiens, LoVo, 4 h, read-out: Cytotoxicity after 4h of treatment (IC50) LoVo. As for the experimental part:
as §1

For “4-demethoxy-6-deoxy-6-amino-3′-deamino-4′-deoxy-4′-epi-amino-daunorubicin [1h]”, in the series with LoVo/DX cells, the “Cytotoxicity after 4h of treatment (IC50) LoVo/DX” value amounted to 8.6 ng/mL and the “R.I. = Resistance Index = (IC50 LoVo.DX)/(IC50 LoVo)” value (from here on “R.I. = Resistance Index =”) turned out to be 2.2. Besides, the “Cytotoxicity after 4h of treatment (IC50) LoVo” value in series [1] amounted to 4.0 ng/mL.
`CC(=O)[C@]1(O)Cc2c(O)c3c(c(O)c2[C@@H](O[C@H]2CC[C@@H](N)[C@H](C)O2)C1)C(=O)c1c(F)cccc1C3=O` [1c, 4-demethoxy-4-fluoro-3′-deamino-4′-deoxy-4′-epi-amino-daunorubicin]: the IC50 with LoVo/DX cells came out at 0.006 µg/mL (≈ 0.012 µM); in series [1] it was 0.0012 µg/mL (≈ 0.0024 µM). Moreover, the “R.I. = Resistance Index =” value with LoVo/DX cells was found to be 5.0.
`CC(=O)[C@]1(O)Cc2c(O)c3c(c(O)c2[C@@H](O[C@H]2C[C@H](N)[C@H](O)[C@H](C)O2)C1)C(=O)c1ccccc1C3=O` [4-dem-DNR, 4-demethoxydaunorubicin, reference compound]: in the series on LoVo/DX cells, the IC50 worked out at 0.125 µg/mL (≈ 0.251 µM) and the “R.I. = Resistance Index =” value came to 6. Further, the IC50 in series [1] came to 0.02 µg/mL (≈ 0.0402 µM).
With `CC(=O)[C@]1(O)Cc2c(O)c3c(c(O)c2[C@@H](O[C@H]2CC[C@@H](N)[C@H](C)O2)C1)C(=O)c1c(O)cccc1C3=O` [1a, 4-demethyl-3′-deamino-4′-deoxy-4′-epi-amino-daunorubicin], in the series with LoVo/DX cells, the IC50 was determined as 0.0027 µg/mL (≈ 0.00543 µM) and the “R.I. = Resistance Index =” value came to 2.4. The IC50 in series [1] stood at 0.0011 µg/mL (≈ 0.00221 µM).
For the compound `C[C@@H]1O[C@@H](O[C@H]2C[C@](O)(C(=O)CO)Cc3c(O)c4c(c([N+](=O)[O-])c32)C(=O)c2ccccc2C4=O)CC[C@H]1N` [2f, 4-demethoxy-6-deoxy-6-nitro-3′-deamino-4′-deoxy-4′-epi-amino-doxorubicin], in the series with LoVo/DX cells, the IC50 is 2.26 µg/mL (≈ 4.28 µM) and the “R.I. = Resistance Index =” value is 19.4. In series [1], the IC50 was determined as 0.116 µg/mL (≈ 0.22 µM).
In the case of `C[C@@H]1O[C@@H](O[C@H]2C[C@](O)(C(=O)CO)Cc3c2c(O)c2c(c3[N+](=O)[O-])C(=O)c3ccccc3C2=O)CC[C@H]1N` [2e, 4-demethoxy-11-deoxy-11-nitro-3′-deamino-4′-deoxy-4′-epi-amino-doxorubicin], in the series on LoVo/DX cells, the IC50 was determined as 0.205 µg/mL (≈ 0.389 µM) and the “R.I. = Resistance Index =” value is listed as 4.2. The IC50 in series [1] turned out to be 0.0484 µg/mL (≈ 0.0919 µM).
On to `C[C@@H]1O[C@@H](O[C@H]2C[C@](O)(C(=O)CO)Cc3c(N)c4c(c(O)c32)C(=O)c2ccccc2C4=O)CC[C@H]1N` [2g, 4-demethoxy-11-deoxy-11-amino-3′-deamino-4′-deoxy-4′-epi-amino-doxorubicin], for which the IC50 in the series on LoVo/DX cells came out at 0.109 µg/mL (≈ 0.22 µM); in series [1], 0.0188 µg/mL (≈ 0.0379 µM). Besides, in the series on LoVo/DX cells, the “R.I. = Resistance Index =” value was found to be 5.8.
As to `C[C@@H]1O[C@@H](O[C@H]2C[C@](O)(C(=O)CO)Cc3c(O)c4c(c(N)c32)C(=O)c2ccccc2C4=O)CC[C@H]1N` [2h, 4-demethoxy-6-deoxy-6-amino-3′-deamino-4′-deoxy-4′-epi-amino-doxorubicin], in the series with LoVo/DX cells, the IC50 amounted to 0.09 µg/mL (≈ 0.181 µM) and the “R.I. = Resistance Index =” value was found to be 14.5. Also, the IC50 in series [1] amounted to 0.0062 µg/mL (≈ 0.0125 µM).
Turning to `COc1cccc2c1C(=O)c1c(O)c3c(c(O)c1C2=O)C[C@@](O)(C(=O)CO)C[C@@H]3O[C@H]1C[C@H](N)[C@H](O)[C@H](C)O1` [Doxorubicin, doxorubicin, reference compound], in the series with LoVo/DX cells, the IC50 worked out at 2.18 µg/mL (≈ 4.01 µM) and the “R.I. = Resistance Index =” value is 36. Besides, the IC50 in series [1] is 0.06 µg/mL (≈ 0.11 µM).
“4-demethyl-6-deoxy-3′-deamino-4′-deoxy-4′-epi-amino-doxorubicin [2d]”: in the series on LoVo/DX cells, the “Cytotoxicity after 4h of treatment (IC50) LoVo/DX” value was found to be 3.8 ng/mL and the “R.I. = Resistance Index =” value worked out at 3.2. Further, the “Cytotoxicity after 4h of treatment (IC50) LoVo” value in series [1] is 1.2 ng/mL.
